# Data published in ChEMBL document CHEMBL1134745, “Synthesis and evaluation of novel pseudomycin side-chain analogues. Part 3” (2001).
# Positions of bridges follow the written chain, without caps; N, C: chain ends. Non-standard residues stand in square brackets, D forms with d. Residues, ends and D or L forms follow the SMILES beside them. *: point of attachment. Tetradecanoyl(3R-OH) = CCCCCCCCCCC[C@@H](O)CC(=O)*; Asp(3S-OH) = N[C@H](C(=O)O)[C@H](O)C(=O)O; Thr(4-Cl) = N[C@H](C(=O)O)[C@H](O)CCl; aThr = C[C@H](O)[C@H](N)C(=O)O; dDab = NCC[C@@H](N)C(=O)O; Dab = NCC[C@H](N)C(=O)O; Dhb = C/C=C(\N)C(=O)O
# Assays:
# [1] = tested on: Candida albicans; experiment: Lowest concentration required to inhibit 90-100% in vitro growth of Candida albicans; assay type: functional
# [2] = tested on: Cryptococcus neoformans; experiment: Lowest concentration required to inhibit 90-100% in vitro growth of Cryptococcus neoformans
# [3] = tested on: Aspergillus fumigatus; experiment: Lowest concentration required to inhibit 90-100% in vitro growth of Aspergillus fumigatus; assay type: functional
# [4] = organism: Mus musculus; experiment: Ratio of the drug concentration required to achieve 50% survival of fungal infection compared with untreated animals to that of ED50 of PSB; assay type: functional
# [5] = tested on: Mus musculus; experiment: Tail vein toxicity at 20 mg/kg dose was determined in mice;Positive; assay type: functional, organism-based; set-up: dose 20 mg/kg
# [6] = organism: Mus musculus; experiment: Ratio of the drug concentration required to achieve 50% survival of fungal infection compared with untreated animals to that of ED50 of PSB;value in range of 2-7; assay type: functional
Compound,MIC [1] [µg/mL],MIC [2] [µg/mL],MIC [3] [µg/mL],Ratio [4],Toxicity [5],Ratio [6]
C/C=C1\NC(=O)[C@H]([C@@H](C)O)NC(=O)[C@H](CCN)NC(=O)[C@H](CCCCN)NC(=O)[C@H](CC(=O)OC)NC(=O)[C@@H](CCN)NC(=O)[C@@H](NC(=O)C[C@@H](O)CCCCCCCCCCCCCCC)COC(=O)[C@H]([C@H](O)CCl)NC(=O)[C@H]([C@H](O)C(=O)OC)NC1=O,5,1.25,20,>20,–,–
C/C=C1\NC(=O)[C@H]([C@@H](C)O)NC(=O)[C@H](CCNC(=O)OCc2oc(=O)oc2C)NC(=O)[C@H](CCCCNC(=O)OCc2oc(=O)oc2C)NC(=O)[C@H](CC(=O)O)NC(=O)[C@@H](CCNC(=O)OCc2oc(=O)oc2C)NC(=O)[C@@H](NC(=O)C[C@@H](O)CCCCCCCCCCCCCCC)COC(=O)[C@H]([C@H](O)CCl)NC(=O)[C@H]([C@H](O)C(=O)O)NC1=O,> 20,> 20,> 20,>19,–,–
C/C=C1\NC(=O)[C@H]([C@H](C)O)NC(=O)[C@H](CCN)NC(=O)[C@H](CCCCN)NC(=O)[C@H](CC(=O)O)NC(=O)[C@@H](CCN)NC(=O)[C@@H](NC(=O)C[C@H](O)CCCCCCCCCCCCCCC)COC(=O)[C@H]([C@H](O)CCl)NC(=O)[C@H]([C@H](O)C(=O)O)NC1=O,0.625,0.01,5,>20,Positive,–
C/C=C1\NC(=O)[C@H]([C@@H](C)O)NC(=O)[C@H](CCN)NC(=O)[C@H](CCCCN)NC(=O)[C@H](CC(=O)O)NC(=O)[C@@H](CCN)NC(=O)[C@@H](NC(=O)C[C@H](O)CCCCCCCCCCCCCCC)COC(=O)[C@H]([C@H](O)CCl)NC(=O)[C@H]([C@H](O)C(=O)O)NC1=O,1.25,0.02,5,>20,–,–
C/C=C1\NC(=O)[C@H]([C@@H](C)O)NC(=O)[C@H](CCN)NC(=O)[C@H](CCCCN)NC(=O)[C@H](CC(=O)OC)NC(=O)[C@@H](CCN)NC(=O)[C@@H](NC(=O)C[C@@H](O)CCCCCCCCCCC)COC(=O)[C@H]([C@H](O)CCl)NC(=O)[C@H]([C@H](O)C(=O)OC)NC1=O,2.5,0.01,20,7.8,–,–
C/C=C1\NC(=O)[C@H]([C@@H](C)O)NC(=O)[C@H](CCNC(=O)OCc2oc(=O)oc2C)NC(=O)[C@H](CCCCNC(=O)OCc2oc(=O)oc2C)NC(=O)[C@H](CC(=O)O)NC(=O)[C@@H](CCNC(=O)OCc2oc(=O)oc2C)NC(=O)[C@@H](NC(=O)C[C@@H](O)CCCCCCCCCCC)COC(=O)[C@H]([C@H](O)CCl)NC(=O)[C@H]([C@H](O)C(=O)O)NC1=O,> 20,> 20,> 20,7.8,–,–
C/C=C1\NC(=O)[C@H]([C@H](C)O)NC(=O)[C@H](CCN)NC(=O)[C@H](CCCCN)NC(=O)[C@H](CC(=O)O)NC(=O)[C@@H](CCN)NC(=O)[C@@H](NC(=O)C[C@H](O)CCCCCCCCCCC)COC(=O)[C@H]([C@H](O)CCl)NC(=O)[C@H]([C@H](O)C(=O)O)NC1=O [PSEUDOMYCIN B] ({Tetradecanoyl(3R-OH)}-S[dDab]DK[Dab][aThr][Dhb][Asp(3S-OH)][Thr(4-Cl)]; ester 1-C),0.625,0.039,20,–,Positive,7
C/C=C1\NC(=O)[C@H]([C@@H](C)O)NC(=O)[C@H](CCNC(=O)OCOC(=O)C(C)C)NC(=O)[C@H](CCCCNC(=O)OCOC(=O)C(C)C)NC(=O)[C@H](CC(=O)O)NC(=O)[C@@H](CCNC(=O)OCOC(=O)C(C)C)NC(=O)[C@@H](NC(=O)C[C@@H](O)CCCCCCCCCCCCCCC)COC(=O)[C@H]([C@H](O)CCl)NC(=O)[C@H]([C@H](O)C(=O)O)NC1=O,> 20,> 20,> 20,>14,–,–
C/C=C1/NC(=O)[C@H]([C@@H](C)O)NC(=O)[C@H](CCNC(=O)OCOC(=O)C(C)(C)C)NC(=O)[C@H](CCCCNC(=O)OCOC(=O)C(C)(C)C)NC(=O)[C@H](CC(=O)O)NC(=O)[C@@H](CCNC(=O)OCOC(=O)C(C)(C)C)NC(=O)[C@@H](NC(=O)C[C@@H](O)CCCCCCCCCCCCCCC)COC(=O)[C@H]([C@H](O)CCl)NC(=O)[C@H]([C@H](O)C(=O)O)NC1=O,> 20,> 20,> 20,>20,–,–
C/C=C1\NC(=O)[C@H]([C@@H](C)O)NC(=O)[C@H](CCN)NC(=O)[C@H](CCCCN)NC(=O)[C@H](CC(=O)NC2CC2)NC(=O)[C@@H](CCN)NC(=O)[C@@H](NC(=O)C[C@@H](O)CCCCCCCCCCC)COC(=O)[C@H]([C@H](O)CCl)NC(=O)[C@H]([C@H](O)C(=O)O)NC1=O,0.156,< 0.01,> 20,<5,–,–
C/C=C1\NC(=O)[C@H]([C@@H](C)O)NC(=O)[C@H](CCNC(=O)OCOC(=O)C(C)C)NC(=O)[C@H](CCCCNC(=O)OCOC(=O)C(C)C)NC(=O)[C@H](CC(=O)O)NC(=O)[C@@H](CCNC(=O)OCOC(=O)C(C)C)NC(=O)[C@@H](NC(=O)C[C@@H](O)CCCCCCCCCCC)COC(=O)[C@H]([C@H](O)CCl)NC(=O)[C@H]([C@H](O)C(=O)O)NC1=O,> 20,> 20,> 20,11.4,–,–
C/C=C1\NC(=O)[C@H]([C@@H](C)O)NC(=O)[C@H](CCNC(=O)OCOC(=O)C(C)(C)C)NC(=O)[C@H](CCCCNC(=O)OCOC(=O)C(C)(C)C)NC(=O)[C@H](CC(=O)O)NC(=O)[C@@H](CCNC(=O)OCOC(=O)C(C)(C)C)NC(=O)[C@@H](NC(=O)C[C@@H](O)CCCCCCCCCCC)COC(=O)[C@H]([C@H](O)CCl)NC(=O)[C@H]([C@H](O)C(=O)O)NC1=O,> 20,> 20,> 20,6.4,–,–
C/C=C1\NC(=O)[C@H]([C@@H](C)O)NC(=O)[C@H](CCN)NC(=O)[C@H](CCCCN)NC(=O)[C@H](CC(=O)NCCN(C)C)NC(=O)[C@@H](CCN)NC(=O)[C@@H](NC(=O)C[C@@H](O)CCCCCCCCCCC)COC(=O)[C@H]([C@H](O)CCl)NC(=O)[C@H]([C@H](O)C(=O)O)NC1=O,0.156,< 0.01,5,<5,–,–
